Results: US9988375B2, “Inhibitors of lysine gingipain” (priority 2014, dated 2018)
“Also recorded” adds a separate entry of the source.

system: differentiated SHSY-5Y cells; experiment: Gingipain-induced death of differentiated SH-SY5Y cells; assay type: cell-based; conditions: 100 nM Kgp and/or RgpB for 24 hours
Experimental: SH-SY5Y neuroblastoma cells were cultured and differentiated in the presence of 5 uM retinoic acid based on established methods [Saberi S., et al. Cell Mol Neurobiol 2013. 33: 747-751]. Differentiation into neuronal cells was verified by observation of neurite outgrowth. The differentiated cells were exposed to 100 nM Kgp and/or RgpB for 24 hours, in the presence or absence of Kgp inhibitors. Results were recorded using a digital microscope camera (FIG. 1C, FIG. 2C). Gingipains are toxic to cells while COR compounds prevent the cytotoxicity.

| SMILES | prevention of gingipain-induced death of differentiated SHSY-5Y cells |
| --- | --- |
| NCCCC[C@H](NC(=O)[C@H]1CCCN(C(=O)CCc2ccccc2)C1)C(=O)c1nc2ccccc2s1 [Compound 3, (3S)—N-[(1S)-5-amino-1-(1,3-benzothiazole-2-carbonyl)pentyl]-1-(3-phenylpropanoyl)piperidine-3-carboxamide] | does not |
| NCCCC[C@H](NC(=O)c1ccccc1)C(=O)c1nc2ccccc2s1 [Compound 1, N-[(1S)-5-amino-1-(1,3-benzothiazole-2-carbonyl)pentyl]benzamide] | prevents; also recorded: effective at preventing cell death |

target: lysine gingipain (Kgp) (Porphyromonas gingivalis (strain ATCC 33277 / DSM 20709 / CIP 103683 / JCM 12257 / NCTC 11834 / 2561), UniProt B2RLK2); experiment: Lysine gingipain (Kgp) fluorogenic inhibition assay; assay type: biochemical; conditions: 0.1 nM Kgp, 10 uM Z-His-Glu-Lys-MCA, 90 minutes, 37° C., pH 7.5; read-out: Kgp IC50 average
Experimental: The capacities of compounds of the present invention to inhibit the activity of lysine gingipain were measured in a fluorogenic assay similar to those described in Barret Biochemical Journal. 1980, 187(3), 909. The specific assay conditions were as follows. Buffer: pH=7.5, 100 mM Tris-HCl, 75 mM NaCl, 2.5 mM CaCl2, 10 mM cysteine, 1% DMSO after all additions. Protein: 0.1 nM Kgp, isolated from culture of Porphyromonas gingivalis, as described in Pike et al. J. Biol. Chem. 1994, 269(1), 406, and Potempa and Nguyen. Current Protocols in Protein Scienc. 2007, 21.20.1-21.20.27. Fluorogenic substrate: 10 uM Z-His-Glu-Lys-MCA. Time=90 minutes. Temperature=37° C. Each compound: 10 concentrations, starting at either 100 uM or 100 nM, with lower concentrations generated by serial 3-fold dilutions. By testing a range of concentrations for each compound, the concentration required to inhibit the activity of lysine gingipain by 50% (the “IC50”) was determined. Under the described assay conditions, signal-to-noise was excellent, and Z factor was greater than 0.6.
The inhibitory of activity of compounds described herein was tested against Kgp, RgpB, and trypsin.

| SMILES | IC50 |
| --- | --- |
| NCCCC[C@H](NC(=O)c1ccncc1)C(=O)c1nc2ccccc2s1 [Compound 13, N-[(1S)-5-amino-1-(1,3-benzothiazole-2-carbonyl)pentyl]pyridine-4-carboxamide] | 25 to 50 nM |
| CC(=O)N1CCC[C@@H](C(=O)N[C@@H](CCCCN)C(=O)c2nc3ccccc3s2)C1 [Compound 9, (3R)-1-acetyl-N-[(1S)-5-amino-1-(1,3-benzothiazole-2-carbonyl)pentyl]piperidine-3-carboxamide] | 1 to 10 nM |
| NCCCCC(NC(=O)[C@@H]1CCCN(C(=O)CCc2ccccc2)C1)C(=O)c1nc2ccccc2s1 (single isomer, unassigned) [Compound 14] | 1 to 10 nM |
| NCCCC[C@H](NC(=O)C1CCCO1)C(=O)c1nc2ccccc2s1 (single isomer, unassigned) [Compound 35] | 1 to 10 nM |
| NCCCC[C@H](NC(=O)C1CCCC1)C(=O)c1nc2ccccc2s1 [Compound 24, N-[(1S)-5-amino-1-(1,3-benzothiazole-2-carbonyl)pentyl]cyclo-pentanecarboxamide] | 1 to 10 nM |
| NCCCC[C@H](NC(=O)c1cccc(=O)[nH]1)C(=O)c1nc2ccccc2s1 [Compound 40, N-[(1S)-5-amino-1-(1,3-benzothiazole-2-carbonyl)pentyl]-6-oxo-1H-pyridine-2-carboxamide] | 25 to 50 nM |
| NCCCC[C@H](NC(=O)C1CCOCC1)C(=O)c1nc2ccccc2s1 [Compound 22, N-[(1S)-5-amino-1-(1,3-benzothiazole-2-carbonyl)pentyl]tetrahydropyran-4-carboxamide] | 10 to 25 nM |
| NCCCC[C@H](NC(=O)C1CCCCO1)C(=O)c1nc2ccccc2s1 (single isomer, unassigned) [Compound 25] | 25 to 50 nM |
| NCCCC[C@H](NC(=O)c1ccccc1C(F)(F)F)C(=O)c1nc2ccccc2s1 [Compound 7, N-[(1S)-5-amino-1-(1,3-benzothiazole-2-carbonyl)pentyl]-2-(trifluoromethyl)benzamide] | 25 to 50 nM |
| NCCCC[C@H](NC(=O)[C@H]1CCCN(C(=O)CCc2ccccc2)C1)C(=O)c1nc2ccccc2s1 [Compound 3, (3S)—N-[(1S)-5-amino-1-(1,3-benzothiazole-2-carbonyl)pentyl]-1-(3-phenylpropanoyl)piperidine-3-carboxamide] | 10 to 25 nM |
| NCCCC[C@H](NC(=O)c1ccccn1)C(=O)c1nc2ccccc2s1 [Compound 12, N-[(1S)-5-amino-1-(1,3-benzothiazole-2-carbonyl)pentyl]pyridine-2-carboxamide] | 50 to 100 nM |
| NCCCC[C@H](NC(=O)C1CCCCO1)C(=O)c1nc2ccccc2s1 (single isomer, unassigned) [Compound 26] | 25 to 50 nM |
| NCCCC[C@H](NC(=O)c1cncs1)C(=O)c1nc2ccccc2s1 [Compound 38, N-[(1S)-5-amino-1-(1,3-benzothiazole-2-carbonyl)pentyl]thiazole-5-carboxamide] | 10 to 25 nM |
| CC(=O)N1CCC[C@@H](C(=O)N[C@H](CCCCN)C(=O)c2nc3ccccc3s2)C1 [Compound 11, (3R)-1-acetyl-N-[(1R)-5-amino-1-(1,3-benzothiazole-2-carbonyl)pentyl]piperidine-3-carboxamide] | 1 to 10 nM |
| NCCCC[C@H](NC(=O)C1CCCC1)C(=O)c1ccccn1 [Compound 44, N-[(1S)-5-amino-1-(pyridine-2-carbonyl)pentyl]cyclopentanecarboxamide] | > 250 nM |
| CC(=O)N1CCC[C@H](C(=O)N[C@@H](CCCCN)C(=O)c2nc3ccccc3s2)C1 [Compound 8, (3S)-1-acetyl-N-[(1S)-5-amino-1-(1,3-benzothiazole-2-carbonyl)pentyl] piperidine-3-carboxamide] | 10 to 25 nM |
| NCCCC[C@H](NC(=O)C1CCCc2ccccc21)C(=O)c1nc2ccccc2s1 (stereo partly drawn) [Compound 31, N-[(1S)-5-amino-1-(1,3-benzothiazole-2-carbonyl)pentyl]tetralin-1-carboxamide] | 10 to 25 nM |
| NCCCCC(NC(=O)[C@@H]1CCCN(C(=O)CCc2ccccc2)C1)C(=O)c1nc2ccccc2s1 (single isomer, unassigned) [Compound 15] | 1 to 10 nM |
| NCCCC[C@H](NC(=O)c1cccnc1)C(=O)c1nc2ccccc2s1 [Compound 30, N-[(1S)-5-amino-1-(1,3-benzothiazole-2-carbonyl)pentyl]pyridine-3-carboxamide] | 25 to 50 nM |
| CC1(C(=O)N[C@@H](CCCCN)C(=O)c2nc3ccccc3s2)CCCCC1 [Compound 33, N-[(1S)-5-amino-1-(1,3-benzothiazole-2-carbonyl)pentyl]-1-methyl-cyclohexanecarboxamide] | 1 to 10 nM |
| NCCCC[C@H](NC(=O)C1CCc2ccccc2C1)C(=O)c1nc2ccccc2s1 (stereo partly drawn) [Compound 32, N-[(1S)-5-amino-1-(1,3-benzothiazole-2-carbonyl)pentyl]tetralin-2-carboxamide] | 1 to 10 nM |
| NCCCC[C@H](NC(=O)C1CCCC1)C(=O)c1nccs1 [Compound 42, N-[(1S)-5-amino-1-(thiazole-2-carbonyl)pentyl]cyclopentanecarboxamide] | 50 to 100 nM |
| NCCCC[C@H](NC(=O)c1nccs1)C(=O)c1nc2ccccc2s1 [Compound 39, N-[(1S)-5-amino-1-(1,3-benzothiazole-2-carbonyl)pentyl]thiazole-2-carboxamide] | 50 to 100 nM |
| CC(=O)N1CCOC(C(=O)N[C@@H](CCCCN)C(=O)c2nc3ccccc3s2)C1 (stereo partly drawn) [Compound 29, 4-acetyl-N-[(1S)-5-amino-1-(1,3-benzothiazole-2-carbonyl)pentyl]morpholine-2-carboxamide] | 10 to 25 nM |
| NCCCC[C@H](NC(=O)OCc1ccccc1)C(=O)c1nc2ccccc2s1 [Compound 23, Benzyl-N-[(1S)-5-amino-1-(1,3-benzothiazole-2-carbonyl)pentyl]carbamate] | 100 to 250 nM |
| NCCCC[C@H](NC(=O)C1CCCO1)C(=O)c1nc2ccccc2s1 (single isomer, unassigned) [Compound 34] | 1 to 10 nM |
| COC1(C(=O)N[C@@H](CCCCN)C(=O)c2nc3ccccc3s2)CCCCC1 [Compound 41, (S)—N-(6-amino-1-(benzo[d]thiazol-2-yl)-1-oxohexan-2-yl)-1-methoxycyclohexanecarboxamide] | 10 to 25 nM |
| CC(=O)N1CCC[C@H](C(=O)N[C@H](CCCCN)C(=O)c2nc3ccccc3s2)C1 [Compound 10, (3S)-1-acetyl-N-[(1R)-5-amino-1-(1,3-benzothiazole-2-carbonyl)pentyl] piperidine-3-carboxamide] | 10 to 25 nM |
| NCCCC[C@H](NC(=O)C1CCCOC1)C(=O)c1nc2ccccc2s1 (single isomer, unassigned) [Compound 18] | 10 to 25 nM |
| NCCCC[C@H](NC(=O)C1CCCOC1)C(=O)c1nc2ccccc2s1 (single isomer, unassigned) [Compound 19] | 10 to 25 nM |

same assay, conditions: read-out: Kgp IC50

| SMILES | IC50 |
| --- | --- |
| NCCCC[C@H](NC(=O)[C@H]1CCCN(C(=O)CCc2ccccc2)C1)C(=O)c1nc2ccccc2s1 [Compound 3, (3S)—N-[(1S)-5-amino-1-(1,3-benzothiazole-2-carbonyl)pentyl]-1-(3-phenylpropanoyl)piperidine-3-carboxamide] | 10 to 25 nM |
